Molecules are shown by their SMILES. Some results are limits rather than exact numbers.

Results on 66 molecules are retold here after patent US6777440B2, “HIV integrase inhibitors” (Bristol-Myers Squibb Company, priority 2001, dated 2004).

System in one series: not given
Assay: not given
Details: not given
What is called melting point is the temperature, or range, at which the solid turns liquid. The molecule `CON(Cc1ccccc1)C(=O)/C=C1\OC(C)(C)OC1=O` yielded a melting point of 109 to 110 °C.

Regarding `CON(Cc1ccc(Cl)cc1)C(=O)/C=C1\OC(C)(C)OC1=O`, the melting point fell in the range of 129 to 130 °C. For `CCON(Cc1ccc(F)cc1)C(=O)/C=C1\OC(C)(C)OC1=O`, the melting point lay within 95 to 96 °C. On the same count and under the same terms, as for `CC(C)CON(Cc1ccc(F)cc1)C(=O)/C=C1\OC(C)(C)OC1=O`, the figure is 105 to 106 °C. The same measure, in the same setting: as for `CON(Cc1ccc(F)c(Br)c1)C(=O)/C=C1\OC(C)(C)OC1=O`, the figure is 117 to 119 °C; as for `CON(Cc1ccccc1C)C(=O)/C=C1\OC(C)(C)OC1=O`, 96 to 97 °C; as for `COc1ccc(CN(OC)C(=O)/C=C2\OC(C)(C)OC2=O)cc1`, 113 to 114 °C. Molecule `CON(Cc1ccc(F)cc1F)C(=O)/C=C1\OC(C)(C)OC1=O` came in with a melting point of 120 to 125 °C. Turning to `COC(=O)c1ccc(CN(OC)C(=O)/C=C2\OC(C)(C)OC2=O)cc1`, the melting point came to 120 °C. `CC1(C)OC(=O)/C(=C/C(=O)N(Cc2ccccc2)OCc2ccccc2)O1`: the melting point lay in the range of 107 to 108 °C. Still for that read-out and setting: as for `CC(C)(C)OC(=O)CON(Cc1ccc(F)cc1)C(=O)/C=C1\OC(C)(C)OC1=O`, the figure is 119 to 120 °C; as for `CON(Cc1ccc(C#N)cc1)C(=O)/C=C1\OC(C)(C)OC1=O`, 148 to 149 °C. On to `CON(Cc1ccc(NC(C)=O)cc1)C(=O)/C=C1\OC(C)(C)OC1=O`, for which the melting point was 212 to 215 °C (dec.). With `CON(Cc1ccc(C)cc1)C(=O)/C=C(\O)C(=O)O`, the melting point was 108 to 111 °C (dec.). For `CON(Cc1ccc(C)cc1)C(=O)/C=C1\OC(C)(C)OC1=O`, the melting point was in the range of 108 to 110 °C. `CON(Cc1ccc(F)c(C)c1)C(=O)/C=C(\O)C(=O)O` came in with a melting point of 120 to 122 °C. Molecule `CON(Cc1ccc(F)c(C)c1)C(=O)/C=C1\OC(C)(C)OC1=O` yielded a melting point of 107 to 108 °C.

`CON(Cc1ccc(C)c(F)c1)C(=O)/C=C(\O)C(=O)O` returned a melting point of 99 °C. In turn, `CON(Cc1ccc(C)c(F)c1)C(=O)/C=C1\OC(C)(C)OC1=O` displayed a melting point of 131 °C. As to `CON(Cc1ccc(C(F)(F)F)cc1)C(=O)/C=C(\O)C(=O)O`, the melting point lay within 108 to 110 °C. Still for that read-out and setting: as for `CON(Cc1ccc(C(F)(F)F)cc1)C(=O)/C=C1\OC(C)(C)OC1=O`, the figure is 110 °C; as for `CON(Cc1ccc(F)cc1C(F)(F)F)C(=O)/C=C1\OC(C)(C)OC1=O`, 129 to 130 °C. Still for that read-out and setting: as for `CON(Cc1ccc(F)cc1Cl)C(=O)/C=C(\O)C(=O)O`, the figure is 140 to 143 °C; as for `CON(Cc1ccc(F)cc1Cl)C(=O)/C=C1\OC(C)(C)OC1=O`, 127 to 128 °C. On the same count and under the same terms, next, `CON(Cc1ccccc1OC(C)C)C(=O)/C=C1\OC(C)(C)OC1=O`: 103 °C; `CON(Cc1ccc(C(=O)O)cc1)C(=O)/C=C(\O)C(=O)O`: 123 to 125 °C. As for `CON(Cc1ccc(C(=O)OC(C)(C)C)cc1)C(=O)/C=C1\OC(C)(C)OC1=O`, the melting point lay in the range of 137 to 138 °C.

On to `CON(Cc1ccc(C(=O)O)cc1)C(=O)/C=C1\OC(C)(C)OC1=O`, for which the melting point lay within 217 to 219 °C. For `CON(CCCc1ccc(F)cc1)C(=O)/C=C(\O)C(=O)O`, the melting point is 86 °C (dec.).

For the molecule `CON(CCCc1ccc(F)cc1)C(=O)/C=C1\OC(C)(C)OC1=O`, the melting point fell in the range of 90 to 91 °C.

As to `CON(CCCc1ccc(Cl)c(Cl)c1)C(=O)/C=C(\O)C(=O)O`, the melting point is 106 °C (dec.). Turning to `CON(CCCc1ccc(Cl)c(Cl)c1)C(=O)/C=C1\OC(C)(C)OC1=O`, the melting point was 105 to 106 °C. The same measure, in the same setting: as for `CC(C)(C)OC(=O)CON(Cc1ccc(Cl)c(Cl)c1)C(=O)/C=C1\OC(C)(C)OC1=O`, the figure is 127 to 129 °C; as for `CN(C)CCON(Cc1ccc(F)cc1)C(=O)/C=C1\OC(C)(C)OC1=O`, 95 to 96 °C. `CC1(C)OC(=O)/C(=C/C(=O)N(Cc2ccc(Cl)c(Cl)c2)OCc2ccccc2)O1` returned a melting point of 113 to 116 °C. On the same count and under the same terms, as for `CON(Cc1cccc(F)c1)C(=O)/C=C1\OC(C)(C)OC1=O`, the figure is 110 to 111 °C; as for `CON(Cc1ccccc1F)C(=O)/C=C1\OC(C)(C)OC1=O`, 109 to 111 °C; as for `CON(CCc1ccc(F)cc1)C(=O)/C=C1\OC(C)(C)OC1=O`, 106 to 107 °C.

Take `CON(CCc1ccc(F)cc1)C(=O)/C=C(\O)C(=O)O` [Compound 9, 3-{[2-(4-Fluoro-phenyl)-ethyl]-methoxy-carbamoyl}-2-hydroxy-acrylic acid]: the melting point was 107 to 108 °C (dec.). On the same count and under the same terms, as for `CON(Cc1ccc(F)c(F)c1)C(=O)/C=C(\O)C(=O)O` [Compound 11, 3-[(3,4-Difluoro-benzyl)-methoxy-carbamoyl]-2-hydroxy-acrylic acid], the figure is 127 to 129 °C. For the molecule `CCON(Cc1ccc(F)cc1)C(=O)/C=C(\O)C(=O)O` [Compound 12, 3-[Ethoxy-(4-fluoro-benzyl)-carbamoyl]-2-hydroxy-acrylic acid], the melting point is 120 to 121 °C (dec.). On the same count and under the same terms, next, `CC(C)CON(Cc1ccc(F)cc1)C(=O)/C=C(\O)C(=O)O` [Compound 13, 3-[(4-Fluoro-benzyl)-isobutoxy-carbamoyl]-2-hydroxy-acrylic acid]: 100 to 101 °C.

Another series addresses T1, HIV-integrase (Human immunodeficiency virus type 1 group M subtype B, UniProt P04585).
T1 construct: 0.26 ng of recombinant integrase was incubated with the beads
Briefly: HIV-integrase inhibition activity (SPA bead strand-transfer assay). In kind it is biochemical. To be noted: 50 μM compound; recombinant integrase. Here is the method: For each reaction, 5 pmole of biotin labled substrate DNA was bound to 100 ug of Streptavidin coated PVT SPA beads (Amersham Pharmacia Biotech). 0.26 ng of recombinant integrase was incubated with the beads for 90 min at 37° C. Unbound enzyme was removed by washing the complex followed by addition of inhibitors and 0.1 fmol of P33 labeled target DNA. Reaction was stopped by adding EDTA to a final concentration of 10 mM. Samples were counted in TopCountNXT (Packard) and the CPM was used as a measure of integration. Reaction condition was as described in A. Engelman and R. Craigie, J. Virol. 69, 5908-5911 (1995). The sequences of substrate and target DNA were described in Nucleic Acid Research 22, 1121-1122 (1994). Compounds of this invention tested in this assay have IC50's of approximately 0.01 to 50 μM
For orientation: inhibition means the drop in the measured response relative to a control, in per cent. For `CON(Cc1ccccc1)C(=O)/C=C(\O)C(=O)O` [Compound 1, 3-(Benzyl-methoxy-carbamoyl)-2-hydroxy-acrylic acid], the inhibition at 50 µM was found to be 99%. Take `O=C(O)/C(O)=C/C(=O)N(Cc1ccccc1)OCc1ccccc1` [Compound 2, 3-(Benzyl-benzyloxy-carbamoyl)-2-hydroxy-acrylic acid]: the inhibition at 50 µM was found to be 99.9%. Turning to `O=C(O)/C(O)=C/C(=O)N(Cc1ccc(Cl)c(Cl)c1)OCc1ccccc1` [Compound 6, 3-[Benzyloxy-(3,4-dichloro-benzyl)-carbamoyl]-2-hydroxy-acrylic acid], the inhibition at 50 µM was determined as 99.9%. On the same count and under the same terms, as for `CON(Cc1cccc(F)c1)C(=O)/C=C(\O)C(=O)O` [Compound 7, 3[(3-Fluoro-benzyl)-methoxy-carbamoyl]-2-hydroxy-acrylic acid], the figure is 99.9%; as for `CON(Cc1ccccc1F)C(=O)/C=C(\O)C(=O)O` [Compound 8, 3-[(2-Fluoro-benzyl)-methoxy-carbamoyl]-2-hydroxy-acrylic acid], 99.9%. Still for that read-out and setting: as for `CON(CCc1ccc(F)cc1)C(=O)/C=C(\O)C(=O)O` [Compound 9, 3-{[2-(4-Fluoro-phenyl)-ethyl]-methoxy-carbamoyl}-2-hydroxy-acrylic acid], the figure is 99.9%; as for `CON(Cc1ccc(Cl)cc1)C(=O)/C=C(\O)C(=O)O` [Compound 10, 3-[(4-Chloro-benzyl)-methoxy-carbamoyl]-2-hydroxy-acrylic acid], 99.9%; as for `CON(Cc1ccc(F)c(F)c1)C(=O)/C=C(\O)C(=O)O` [Compound 11, 3-[(3,4-Difluoro-benzyl)-methoxy-carbamoyl]-2-hydroxy-acrylic acid], 99.9%.

As for `CCON(Cc1ccc(F)cc1)C(=O)/C=C(\O)C(=O)O` [Compound 12, 3-[Ethoxy-(4-fluoro-benzyl)-carbamoyl]-2-hydroxy-acrylic acid], the inhibition at 50 µM was 99.9%.

As for `CC(C)CON(Cc1ccc(F)cc1)C(=O)/C=C(\O)C(=O)O` [Compound 13, 3-[(4-Fluoro-benzyl)-isobutoxy-carbamoyl]-2-hydroxy-acrylic acid], the inhibition at 50 µM was found to be 99.9%. As to `O=C(O)/C(O)=C/C(=O)N(Cc1ccc(F)cc1)OCC(=O)N1CCOCC1` [Compound 62], the inhibition at 50 µM is above 99%.

Regarding `CN(CCCN1c2ccccc2CCc2ccccc21)C(=O)CON(Cc1ccc(F)cc1)C(=O)/C=C(\O)C(=O)O` [Compound 63], the inhibition at 50 µM was above 99%.

Turning to `CC(NC(=O)CON(Cc1ccc(F)cc1)C(=O)/C=C(\O)C(=O)O)c1ccccc1` (stereo not shown) [Compound 64], the inhibition at 50 µM is above 99%.

With `O=C(CON(Cc1ccc(F)cc1)C(=O)/C=C(\O)C(=O)O)NCc1ccc(F)cc1` [Compound 65], the inhibition at 50 µM is above 99%. For the molecule `O=C(CON(Cc1ccc(F)cc1)C(=O)/C=C(\O)C(=O)O)NCc1ccc(Cl)cc1` [Compound 66], the inhibition at 50 µM was above 99%. Still for that read-out and setting: next, `COc1ccc(CNC(=O)CON(Cc2ccc(F)cc2)C(=O)/C=C(\O)C(=O)O)cc1` [Compound 67]: above 99%; `Cc1ccc(CNC(=O)CON(Cc2ccc(F)cc2)C(=O)/C=C(\O)C(=O)O)cc1` [Compound 68]: above 99%. Still for that read-out and setting: as for `O=C(CON(Cc1ccc(F)cc1)C(=O)/C=C(\O)C(=O)O)NCc1ccc(C(F)(F)F)cc1` [Compound 69], the figure is above 99%; as for `CC(NC(=O)CON(Cc1ccc(F)cc1)C(=O)/C=C(\O)C(=O)O)c1ccc(F)cc1` (stereo not shown) [Compound 70], above 99%; as for `CN(CCCC(c1ccc(Cl)cc1)c1ccc(Cl)cc1)C(=O)CON(Cc1ccc(F)cc1)C(=O)/C=C(\O)C(=O)O` [Compound 71], above 99%.

`CCCCN(Cc1ccccc1)C(=O)CON(Cc1ccc(F)cc1)C(=O)/C=C(\O)C(=O)O` [Compound 72]: the inhibition at 50 µM was above 99%.

For `CCCN(CC1CC1)C(=O)CON(Cc1ccc(F)cc1)C(=O)/C=C(\O)C(=O)O` [Compound 73], the inhibition at 50 µM was above 99%. In the case of `CC(C)CN(CC(C)C)C(=O)CON(Cc1ccc(F)cc1)C(=O)/C=C(\O)C(=O)O` [Compound 74], the inhibition at 50 µM is above 99%. On the same count and under the same terms, as for `CCCCCCN(CCCCCC)C(=O)CON(Cc1ccc(F)cc1)C(=O)/C=C(\O)C(=O)O` [Compound 75], the figure is above 99%; as for `O=C(O)/C(O)=C/C(=O)N(Cc1ccc(F)cc1)OCC(=O)N(C1CCCCC1)C1CCCCC1` [Compound 76], above 99%. Same read-out and setting: next, `CC(=O)N1CCCN(C(=O)CON(Cc2ccc(F)cc2)C(=O)/C=C(\O)C(=O)O)CC1` [Compound 77]: above 99%; `CCNC(=O)CON(Cc1ccc(F)cc1)C(=O)/C=C(\O)C(=O)O` [Compound 78]: above 99%. Consider `CC(C)CNC(=O)CON(Cc1ccc(F)cc1)C(=O)/C=C(\O)C(=O)O` [Compound 79], for which the inhibition at 50 µM was above 99%.
